According to PMC6629613, “Selective and competitive inhibition of kynurenine aminotransferase 2 by glycyrrhizic acid and its analogues” (Scientific Reports, 2019):
Read-outs that look alike come from different tables or passages of the source.

What was measured:
human KAT2 [1] = molecular target: T1, human KAT2 (Homo sapiens, UniProt Q8N5Z0); test: Human KAT2 enzyme inhibition, microplate fluorescence assay of KYNA; type: biochemical
T1 construct: made in house; host or cells: insect Sf9 cells (baculovirus)
Method: High-throughput screening assays for inhibitors of human KAT2 were conducted using a microplate fluorescence assay for kynurenine aminotransferase[26] with minor modifications. In these assays, KAT2 enzyme activities were measured in black 384-well untreated plates. The human KAT2 reaction mixture (20 μL) contained 10 ng/μL recombinant human KAT2, 1 mM L-KYN, 1 mM α-ketoglutaric acid, […], 0.005% Tween 20 and 150 mM AMP buffer (pH 9.5), and was added to 384-well plates containing compounds using a Multidrop dispenser (Thermo Fisher Scientific, USA). The compound library comprised about 13,000 compounds from the Drug Discovery Initiative at the University of Tokyo. The compound library includes about 9,600 diverse compounds for pilot screening and about 3,400 known bioactive compounds. All compounds were dissolved and diluted in DMSO to a final concentration of 10 μM. Reaction mixtures were incubated for 2 h at room temperature, and 20 μL aliquots of 300 mM zinc acetate (pH 5.5) were then added directly using a Multidrop dispenser. Fluorescence intensities of KYNA were measured using an ARVO X Multi Label Reader (PerkinElmer, USA) at an excitation wavelength of 340 nm and an emission wavelength of 460 nm. Assay quality was validated by calculating signal–background and Z’ factor. These assays identified approximately 20 candidate KAT2 inhibitors with potent inhibitory activity from about 13,000 compounds. Candidate compounds were validated in quadruplicate KAT2 enzyme activity assays.
Inhibitory activities of the identified compounds against KAT1 and KAT2 were measured using the enzyme activity assays described above. KAT1 reaction mixtures (20 μL) contained 10 ng/μL recombinant human KAT1, 1 mM L-KYN, 1 mM sodium pyruvate, 100 μM PLP, 0.005% Tween 20 and inhibitors at various concentrations in 150 mM 2-amino-2-methyl-1-propanol (AMP) buffer (pH 7.4 or 9.5). […] Following the addition of 20 μL aliquots of 300 mM zinc acetate, fluorescence intensities of KYNA were measured using an ARVO X Multi Label Reader (PerkinElmer, USA).
(§1) To determine steady state kinetic parameters for the substrate L-KYN, 50 μL reaction mixtures containing 10 ng/μL recombinant human KAT2, 1 mM α-KG, 100 μM PLP, 0.005% Tween 20, L-KYN at concentrations of 10, 5, 2.5, 1.25, 0.62, 0.31 and 0.15 mM and GL, GA or CBX or PF-04859989 at 4.5, 6.0 and 3.5 μM and 300 nM, respectively. Following incubation for 30 min at 37 °C, reactions were stopped by adding 3% perchloric acid at a 1:1 ratio. KYNA concentrations were measured using the same HPLC method as described above. Double reciprocal plots were used to determine types of inhibition. Competitive inhibition constants (Ki) for GL, GA and CBX were calculated using the global fit formula (GraphPad Prism v6.07)[60],[61] as follows: v=Vmax∗[S]/(Kmobs+[S])andKmobs=Km×(1+[I]/Ki), where v = initial velocity, Vmax = maximum velocity, [S] = substrate concentration, Km = Michaelis–Menten constant and [I] = inhibitor concentration. The Ki value of PF-04859989 was calculated using the global fit formula as follows: Vmaxinh=Vmax/(1+[I]/Ki)andKmobs=Vmaxinh×[S]/(Km+[S]), where Vmaxinh = maximum enzyme velocity for the concentration of inhibitor. IC50 values were determined by nonlinear curve fitting using GraphPad Prism v6.07. All statistical analyses were performed using GraphPad Prism v6.07.

mouse KAT2 = molecular target: T2, mouse KAT2 (Mus musculus, UniProt Q9WVM8); test: Mouse KAT2 enzyme inhibition, microplate fluorescence assay of KYNA; type: biochemical; settings: recombinant mouse KAT2, 1 mM L-KYN, AMP buffer pH 9.5; mean ± SEM
T2 construct: made in house; host or cells: insect Sf9 cells (baculovirus)
Method: (§2) Inhibitory activities of the identified compounds against KAT1 and KAT2 were measured using the enzyme activity assays described above. KAT1 reaction mixtures (20 μL) contained 10 ng/μL recombinant human KAT1, 1 mM L-KYN, 1 mM sodium pyruvate, 100 μM PLP, 0.005% Tween 20 and inhibitors at various concentrations in 150 mM 2-amino-2-methyl-1-propanol (AMP) buffer (pH 7.4 or 9.5). Human and mouse KAT2 reaction mixtures (20 μL) contained 10 ng/μL recombinant human or mouse KAT2, 1 mM L-KYN, 1 mM α-ketoglutaric acid, 100 μM PLP, 0.005% Tween 20 and inhibitors at various concentrations in 150 mM AMP buffer (pH 9.5). Following the addition of 20 μL aliquots of 300 mM zinc acetate, fluorescence intensities of KYNA were measured using an ARVO X Multi Label Reader (PerkinElmer, USA).
as §1

human KAT1 = molecular target: T3, human KAT1 (Homo sapiens, UniProt Q16773); test: Human KAT1 enzyme inhibition, microplate fluorescence assay of KYNA; type: biochemical; settings: recombinant human KAT1, 1 mM L-KYN, 1 mM sodium pyruvate
T3 construct: made in house; host or cells: insect Sf9 cells (baculovirus)
T3 sequence (Q16773 1-422): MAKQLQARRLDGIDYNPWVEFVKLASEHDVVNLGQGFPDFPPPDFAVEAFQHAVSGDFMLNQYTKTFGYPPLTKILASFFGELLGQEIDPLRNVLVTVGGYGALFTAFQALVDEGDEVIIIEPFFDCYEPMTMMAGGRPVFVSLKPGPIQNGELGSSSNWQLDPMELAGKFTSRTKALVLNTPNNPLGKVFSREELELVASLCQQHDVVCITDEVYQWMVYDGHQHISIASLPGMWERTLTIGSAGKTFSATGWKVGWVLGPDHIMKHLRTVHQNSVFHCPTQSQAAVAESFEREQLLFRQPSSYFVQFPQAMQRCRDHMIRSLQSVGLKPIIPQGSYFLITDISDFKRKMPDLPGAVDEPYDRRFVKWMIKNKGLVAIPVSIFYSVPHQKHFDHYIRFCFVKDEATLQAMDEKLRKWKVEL
Method: as §2, §1

human KAT3 = molecular target: T4, human KAT3 (Homo sapiens, UniProt Q6YP21); test: Human KAT3 enzyme inhibition, HPLC analysis of KYNA; type: biochemical; settings: recombinant human KAT3, 1 mM L-KYN, AMP buffer pH 9.5, HPLC; mean ± SEM
T4 construct: purchased OriGene Technologies, Inc
Method: KAT3 and KAT4 enzyme activities were measured using high performance liquid chromatography (HPLC) analyses of reaction products. Briefly, KAT3 reaction mixtures (50 μL) contained 10 ng/μL recombinant human KAT3, 1 mM L-KYN, 1 mM sodium pyruvate, 100 μM PLP, 0.005% Tween 20 and inhibitors at various concentrations in 150 mM AMP buffer (pH 9.5). KAT4 reaction mixtures (50 μL) contained recombinant human KAT4, 1 mM L-KYN, 1 mM α-ketoglutaric acid, 100 μM PLP, 0.005% Tween 20 and inhibitors at various concentrations in 100 mM Tris buffer (pH 7.5). Reaction mixtures were incubated for 1 h at 37 °C and reactions were then stopped by adding 3% perchloric acid at a ratio of 1:1. KYNA contents of reaction mixtures were then determined using HPLC (Shimadzu, Kyoto, Japan) following isocratic elution from a reverse-phase column (TSKgel ODS-100V, 3 μm, 4.6 mm [ID] × 150 mm [L]; Tosoh, Tokyo, Japan) using a mobile phase containing 10 mM sodium acetate with 2% acetonitrile (pH adjusted to 4.5) at flow rate of 0.8 mL/min. KYNA was detected using a fluorescence detector (RF-20Axs) at an excitation wavelength of 344 nm and an emission wavelength of 380 nm. […]

human KAT4 = molecular target: T5, human KAT4 (Homo sapiens, UniProt P00505); test: Human KAT4 enzyme inhibition, HPLC analysis of KYNA; type: biochemical; settings: recombinant human KAT4, 1 mM L-KYN, Tris buffer pH 7.5, HPLC
T5 construct: made in house; host or cells: insect Sf9 cells (baculovirus)
T5 sequence (P00505 30-430): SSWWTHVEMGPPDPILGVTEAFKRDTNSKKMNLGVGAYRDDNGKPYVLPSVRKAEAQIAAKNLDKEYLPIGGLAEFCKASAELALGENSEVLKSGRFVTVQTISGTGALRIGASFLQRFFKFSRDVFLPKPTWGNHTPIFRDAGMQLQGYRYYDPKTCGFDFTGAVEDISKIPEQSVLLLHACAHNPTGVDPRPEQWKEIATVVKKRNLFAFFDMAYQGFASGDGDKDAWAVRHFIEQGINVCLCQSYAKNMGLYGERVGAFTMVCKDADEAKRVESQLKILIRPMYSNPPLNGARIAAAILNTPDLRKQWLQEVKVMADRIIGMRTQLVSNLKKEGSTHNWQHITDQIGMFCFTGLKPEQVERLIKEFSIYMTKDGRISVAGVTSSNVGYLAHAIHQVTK
Method: KAT3 and KAT4 enzyme activities were measured using high performance liquid chromatography (HPLC) analyses of reaction products. Briefly, KAT3 reaction mixtures (50 μL) contained 10 ng/μL recombinant human KAT3, 1 mM L-KYN, 1 mM sodium pyruvate, 100 μM PLP, 0.005% Tween 20 and inhibitors at various concentrations in 150 mM AMP buffer (pH 9.5). KAT4 reaction mixtures (50 μL) contained recombinant human KAT4, 1 mM L-KYN, 1 mM α-ketoglutaric acid, 100 μM PLP, 0.005% Tween 20 and inhibitors at various concentrations in 100 mM Tris buffer (pH 7.5). Reaction mixtures were incubated for 1 h at 37 °C and reactions were then stopped by adding 3% perchloric acid at a ratio of 1:1. KYNA contents of reaction mixtures were then determined using HPLC (Shimadzu, Kyoto, Japan) following isocratic elution from a reverse-phase column (TSKgel ODS-100V, 3 μm, 4.6 mm [ID] × 150 mm [L]; Tosoh, Tokyo, Japan) using a mobile phase containing 10 mM sodium acetate with 2% acetonitrile (pH adjusted to 4.5) at flow rate of 0.8 mL/min. KYNA was detected using a fluorescence detector (RF-20Axs) at an excitation wavelength of 344 nm and an emission wavelength of 380 nm.
as §1, with “Double reciprocal plots were used to determine types of inhibition.” left out, “The Ki value of PF-04859989 was calculated using the global fit formula as follows: Vmaxinh=Vmax/(1+[I]/Ki)andKmobs=Vmaxinh×[S]/(Km+[S]), where Vmaxinh = maximum enzyme velocity for the concentration of inhibitor.” left out, “All statistical analyses were performed using GraphPad Prism v6.07.” left out

human KAT2 [2] = molecular target: T1, human KAT2; test: Human KAT2 inhibition kinetics with varying KYN (Lineweaver-Burk, global fit), HPLC; type: biochemical; settings: for Ki: global fit formula, mean ± SEM, read-out: Ki (inhibition constant); for type of inhibition: inhibitor close to its IC50, Lineweaver-Burk
Method: as §1

[3] = cited from earlier work
human KAT2 [4] = molecular target: T1, human KAT2; design: method as in PMID 18537204, PMID 27367665; settings: read-out: reported IC50; cited from earlier work
[5] = human KAT2 at physiological conditions (pH 7.4)
[6] = recombinant human KAT2, 1 mM L-KYN, AMP buffer pH 9.5, mean ± SEM, three experiments

T1 sequence (Q8N5Z0 30-425): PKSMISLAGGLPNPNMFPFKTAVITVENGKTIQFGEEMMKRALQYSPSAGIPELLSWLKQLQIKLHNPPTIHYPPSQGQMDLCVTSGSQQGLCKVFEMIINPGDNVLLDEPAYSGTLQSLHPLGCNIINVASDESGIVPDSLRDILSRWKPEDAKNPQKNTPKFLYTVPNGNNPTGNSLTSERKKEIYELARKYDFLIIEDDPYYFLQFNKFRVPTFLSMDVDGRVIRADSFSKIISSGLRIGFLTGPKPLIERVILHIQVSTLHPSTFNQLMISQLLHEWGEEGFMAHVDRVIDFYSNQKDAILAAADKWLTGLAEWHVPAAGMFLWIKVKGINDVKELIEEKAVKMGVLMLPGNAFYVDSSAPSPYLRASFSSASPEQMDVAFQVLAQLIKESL
T2 sequence (Q9WVM8 30-425): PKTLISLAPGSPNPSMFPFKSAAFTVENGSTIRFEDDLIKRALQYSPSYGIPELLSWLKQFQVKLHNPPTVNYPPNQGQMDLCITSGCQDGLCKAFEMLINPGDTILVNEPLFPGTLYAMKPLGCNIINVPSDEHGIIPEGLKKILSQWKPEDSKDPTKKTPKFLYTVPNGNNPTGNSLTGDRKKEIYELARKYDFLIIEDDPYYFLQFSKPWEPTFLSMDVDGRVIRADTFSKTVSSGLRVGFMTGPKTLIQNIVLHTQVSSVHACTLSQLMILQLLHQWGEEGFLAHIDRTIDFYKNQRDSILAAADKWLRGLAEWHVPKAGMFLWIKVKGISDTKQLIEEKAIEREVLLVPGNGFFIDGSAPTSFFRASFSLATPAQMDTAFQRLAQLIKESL
T4 sequence (Q6YP21 whole entry): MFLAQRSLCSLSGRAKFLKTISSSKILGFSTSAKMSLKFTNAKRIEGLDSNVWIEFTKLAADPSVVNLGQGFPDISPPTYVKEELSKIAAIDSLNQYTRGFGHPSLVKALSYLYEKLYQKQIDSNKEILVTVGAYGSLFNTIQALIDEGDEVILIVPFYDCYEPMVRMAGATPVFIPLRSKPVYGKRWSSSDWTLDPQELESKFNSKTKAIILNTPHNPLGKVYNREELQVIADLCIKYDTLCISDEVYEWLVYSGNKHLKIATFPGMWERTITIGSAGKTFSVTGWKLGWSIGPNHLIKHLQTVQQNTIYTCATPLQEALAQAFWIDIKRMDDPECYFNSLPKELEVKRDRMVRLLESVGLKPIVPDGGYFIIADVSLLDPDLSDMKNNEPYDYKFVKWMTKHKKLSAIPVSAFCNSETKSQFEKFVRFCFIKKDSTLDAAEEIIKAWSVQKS

Row | IC50 (human KAT2 [1]; [5]) [µM] | IC50 (human KAT2 [1]; [6]) [µM] | IC50 (mouse KAT2) [µM] | IC50 (human KAT1) [µM] | IC50 (human KAT3) [µM] | IC50 (human KAT4) [µM] | Ki (human KAT2 [2]) [µM] | type of inhibition (human KAT2 [2]) | Molecule | passage through the BBB [3] | IC50 (human KAT2 [4]) [µM] | IC50 (human KAT2 [1]; KAT2, as determined in our assays) [µM]
1 | 3.34 ± 0.25 | 3.9 ± 0.37 | 19.8 ± 0.34 | > 500 | > 500 | > 500 | 4.11 ± 0.37 | competitive inhibitors of KYN | CC1(C)[C@@H](OC(=O)CCC(=O)O)CC[C@]2(C)[C@H]3C(=O)C=C4[C@@H]5C[C@@](C)(C(=O)O)CC[C@]5(C)CC[C@@]4(C)[C@]3(C)CC[C@@H]12 [CBX, carbenoxolone] | failed to pass through the BBB | – | –
2 | 9.87 ± 0.32 | 6.96 ± 0.37 | 56.8 ± 1.45 | > 500 | – | > 500 | 6.92 ± 0.6 | competitive inhibitors of KYN | CC1(C)[C@@H](O)CC[C@]2(C)[C@H]3C(=O)C=C4[C@@H]5C[C@@](C)(C(=O)O)CC[C@]5(C)CC[C@@]4(C)[C@]3(C)CC[C@@H]12 [GA, glycyrrhetinic acid] | – | – | –
3 | 7.93 ± 0.17 | 4.51 ± 0.2 | 86.2 ± 1.94 | > 500 | > 500 | > 500 | 10.4 ± 1.62 | competitive inhibitors of KYN | CC1(C)[C@@H](O[C@H]2O[C@H](C(=O)O)[C@@H](O)[C@H](O)[C@H]2O[C@@H]2O[C@H](C(=O)O)[C@@H](O)[C@H](O)[C@H]2O)CC[C@]2(C)[C@H]3C(=O)C=C4[C@@H]5C[C@@](C)(C(=O)O)CC[C@]5(C)CC[C@@]4(C)[C@]3(C)CC[C@@H]12 [GL, glycyrrhizic acid] | – | – | –
4 | – | – | – | – | – | – | – | – | O=C(O)C(Cc1ccccc1)N1C(=O)c2cc(Cl)c(Cl)cc2C1=O (centres unmarked) [NS-1502] | – | 315 | –
5 | – | – | – | – | – | – | – | – | (S)-4-(ethylsulfonyl)benzoylalanine [S-ESBA] | – | ~1000 | –

Row | Molecule | IC50 (human KAT2 [1]; [5]) [µM] | IC50 (human KAT2 [1]; [6]) [µM] | IC50 (mouse KAT2) [µM] | IC50 (human KAT1) [µM] | IC50 (human KAT3) [µM] | IC50 (human KAT4) [µM] | Ki (human KAT2 [2]) [µM] | type of inhibition (human KAT2 [2]) | passage through the BBB [3] | IC50 (human KAT2 [4]) [µM] | IC50 (human KAT2 [1]; KAT2, as determined in our assays) [µM]
6 | N[C@H]1Cc2ccccc2N(O)C1=O [PF-04859989] | – | – | – | – | – | – | 0.22 ± 0.01 | maximum reaction rates (Vmax) varied but the Michaelis–Menten constant (Km) did not change | – | – | 0.3
